Earlier results in article PMC7190335 (Science Advances, 2020).

Biological target: T1, COUP-TFII (Homo sapiens, UniProt P24468)
T1 sequence (P24468 1-414): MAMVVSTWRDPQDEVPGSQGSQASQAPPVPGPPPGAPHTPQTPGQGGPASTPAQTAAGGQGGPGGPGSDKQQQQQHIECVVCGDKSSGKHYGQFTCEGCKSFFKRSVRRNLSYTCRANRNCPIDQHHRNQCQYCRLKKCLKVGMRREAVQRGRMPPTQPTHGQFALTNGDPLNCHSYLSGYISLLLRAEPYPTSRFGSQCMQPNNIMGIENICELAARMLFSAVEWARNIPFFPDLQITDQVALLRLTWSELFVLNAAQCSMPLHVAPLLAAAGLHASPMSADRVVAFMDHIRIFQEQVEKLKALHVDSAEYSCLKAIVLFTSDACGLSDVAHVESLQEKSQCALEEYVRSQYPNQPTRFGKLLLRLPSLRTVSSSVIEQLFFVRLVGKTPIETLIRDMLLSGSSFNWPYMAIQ

SMILES: COc1ccc(O)c2ccccc12 [4-methoxynaphthol compound, 4-methoxynaphthol]
- concentration needed to reduce COUP-TFII activity: up to 100 μM
